In article PMC9775471, “Anticancer Activity of Thiophene Carboxamide Derivatives as CA-4 Biomimetics: Synthesis, Biological Potency, 3D Spheroid Model, and Molecular Dynamics Simulation” (Biomimetics, 2022):
≈ marks a conversion by molar mass, not a printed value. Like-named read-outs stand apart in the source and are kept apart here.

Key:
Hep3B (HCC) cells = test: MTS cytotoxicity assay, Hep3B; type: cell-based; conditions: Homo sapiens, concentrations 1, 10, 50, 100, 300 µM, mean ± SD
Method: (§1) Several tumor cell lines were used in this study including HeLa (cervical adenocarcinoma) HepG2, and Hep3B (HCC); B16F1 (melanoma); MCF-7 (breast carcinoma); Colo205 (colon adenocarcinoma); and CaCo-2 (colorectal adenocarcinoma), in addition to two normal cell lines LX-2 (human hepatic stellate) and Hek293t (kidney cell lines). All evaluated cells were incubated in RPMI-1640 medium and supplemented by 1% of Penicillin/Streptomycin antibiotics, 1% of l-glutamine, and 10% fetal bovine serum. The selected cells were cultivated at 37 °C in a wet environment containing 5% CO2.. In a 96-well plate, the seeding of cells was conducted as 2.5 × 10^4 cells per well. After 72 hr, the cells were confluent, the media was refreshed, and after that, all cells were incubated by several compounds’ concentrations (1, 10, 50, 100, and 300 µM). The viability of cells was investigated by the Cell Tilter 96® Aqueous One Solution Cell Proliferation (MTS) assay regarding the manufacturer’s instructions (Promega Corporation, Madison, WI). In the last step, 20 μL of MTS per 100 μL of media were added to each well and kept at 37 °C; after that at 490 nm wavelength the absorbance was collected.

B16F1 (melanoma) cells = test: MTS cytotoxicity assay, B16F1; type: cell-based; conditions: Mus musculus, B16-F1, concentrations 1, 10, 50, 100, 300 µM, mean ± SD
Method: as §1

[1] = tested on: Colo205 (colon adenocarcinoma) cells; test: MTS cytotoxicity assay, Colo205; type: cell-based; conditions: Homo sapiens, COLO 205, concentrations 1, 10, 50, 100, 300 µM, mean ± SD
Method: as §1

HepG2 (HCC) cells = test: MTS cytotoxicity assay, HepG2; type: cell-based; conditions: Homo sapiens, concentrations 1, 10, 50, 100, 300 µM, mean ± SD
Method: as §1

[2] = tested on: CaCo-2 (colorectal adenocarcinoma) cells; test: MTS cytotoxicity assay, CaCo-2; type: cell-based; conditions: Homo sapiens, concentrations 1, 10, 50, 100, 300 µM, mean ± SD
Method: as §1

[3] = tested on: HeLa (cervical adenocarcinoma) cells; test: MTS cytotoxicity assay, HeLa; type: cell-based; conditions: Homo sapiens, concentrations 1, 10, 50, 100, 300 µM, mean ± SD
Method: as §1

[4] = tested on: MCF-7 (breast carcinoma) cells; test: MTS cytotoxicity assay, MCF-7; type: cell-based; conditions: Homo sapiens, MCF7, concentrations 1, 10, 50, 100, 300 µM, mean ± SD
Method: as §1

[5] = tested on: LX-2 (human hepatic stellate) cells; test: MTS cytotoxicity assay, normal cell line LX-2; type: cell-based; conditions: concentrations 1, 10, 50, 100, 300 µM
Method: as §1

[6] = tested on: Hek293t (kidney cell lines); test: MTS cytotoxicity assay, normal cell line Hek293t; type: cell-based; conditions: Homo sapiens, HEK-293T, concentrations 1, 10, 50, 100, 300 µM, mean ± SD
Method: as §1

Hep3B liver cancer cells = test: Hepatocellular carcinoma spheroids formation test (3D); type: cell-based; conditions: 24 h; for Effect on Hep3B spheroid formation: 17 μg/mL, compared to non-treated cells
Method: Hep3B liver cancer cells (4 × 10^3 per well) were seeded in round-bottomed supra-low attachment well plates over 24 h in the presence of 2b or 2e (17 μg/mL). Doxorubicin, a chemotherapeutic medication, was used as a positive control (100 μg/mL). Images of the formed spheroids/clusters were captured at 0 h and 24 h using an inverted microscope with a final magnification of 100×. The photographs of the spheroids were assessed and quantified using ImageJ software.

Hep3B (HCC) [7] = conditions: cited from earlier work
[8] = cited from earlier work
[9] = cited from earlier work; remark: listed apart in the source
[10] = cited from earlier work; remark: listed apart in the source
Hep3B (HCC) [11] = tested on: Hep3B (HCC); set-up: method as in PMID 33763478; conditions: cited from earlier work

Structure (SMILES)	IC50 (Hep3B (HCC) cells) [µM]	IC50 (B16F1 (melanoma) cells) [µM]	IC50 [1] [µM]	IC50 (HepG2 (HCC) cells) [µM]	IC50 [2] [µM]	IC50 [3] [µM]	IC50 [4] [µM]	IC50 [5] [µM]	IC50 [6] [µM]	Effect on Hep3B spheroid formation (Hep3B liver cancer cells)	melting point [°C]	IC50 against Hep3B (Hep3B (HCC) [7]; earlier series with two halogens at ortho positions) [µg/mL]	Water solubility [8]	Plasma half-life [9]	Chemical stability [10]	IC50 against Hep3B (Hep3B (HCC) [7]; earlier isoxazole-carboxamide series, ortho halogen) [µg/mL]	Cell cycle effect (Hep3B (HCC) [11])	IC50 against Hep3B (Hep3B (HCC) [7]; earlier fluorophenyl-isoxazole series, para halogen) [µg/mL]	Effect on Hep3B spheroid formation (positive control) (Hep3B liver cancer cells; 100 μg/mL)
COc1cc(NC(=O)c2ccc(-c3ccc(F)cc3)s2)cc(OC)c1OC [2b, 5-(4-fluorophenyl)-N-(3,4,5-trimethoxyphenyl) thiophene-2-carboxamide]	5.46 ± 1.47	> 300	35.1 ± 2.05	> 300	> 300	205	29.7 ± 2.74	> 300	278.1 ± 2.75	significantly smaller spheroid	190.8 to 192	–	–	–	–	–	–	–	–
Cc1onc(-c2c(F)cccc2Cl)c1C(=O)Nc1ccc(C(C)(C)C)cc1 [St.3, N-(4-(tert-butyl)phenyl)-3-(2-chloro-6-fluorophenyl)-5-methylisoxazole-4-carboxamide]	–	–	–	–	–	–	–	–	–	–	–	2.77 (≈ 7.16 µM)	–	–	–	–	–	–	–
COc1ccc(/C=C\c2cc(OC)c(OC)c(OC)c2)cc1O [CA-4, Combretastatin A-4]	–	–	–	–	–	–	–	–	–	–	–	–	poor	short	chemical instability	–	–	–	–
COc1ccc(OC)c(NC(=O)c2c(-c3ccccc3Cl)noc2C)c1 [St.1, 3-(2-chlorophenyl)-N-(2,5-dimethoxyphenyl)-5-methylisoxazole-4-carboxamide]	–	–	–	–	–	–	–	–	–	–	–	–	–	–	–	23 (≈ 61.7 µM)	cell cycle arrest in the G2/M phase	–	–
COc1cc(NC(=O)c2ccc(-c3ccc(F)cc3)s2)c(OC)cc1Cl [2e, N-(4-chloro-2,5-dimethoxyphenyl)-5-(4-flurophenyl)thiophene-2-carboxamide]	12.6 ± 2.57	112 ± 1.99	74.8 ± 1.45	18.2 ± 0.78	82.9 ± 2.45	39.6 ± 1.88	42.5 ± 2.59	> 300	105 ± 1.08	inhibited spheroid formation	185.5 to 187.5	–	–	–	–	–	–	–	–
COc1ccc(NC(=O)c2c(-c3ccc(F)cc3)noc2C)cc1OC [St.2, N-(3,4-dimethoxyphenyl)-3-(4-fluorophenyl)-5-methylisoxazole-4-carboxamide]	–	–	–	–	–	–	–	–	–	–	–	–	–	–	–	–	–	7.66 (≈ 21.5 µM)	–
O=C(Nc1ccccc1)c1ccc(-c2ccc(F)cc2)s1 [2a, 5-(4-fluorophenyl)-N-phenylthiophene-2-carboxamide]	28 ± 2.05	> 300	> 300	283.7 ± 1.79	> 300	> 300	> 300	> 300	> 300	–	203.5 to 205	–	–	–	–	–	–	–	–
CC(C)(C)c1ccc(NC(=O)c2ccc(-c3ccc(F)cc3)s2)cc1 [2c, N-(4-(tert-butyl)phenyl)-5-(4-fluorophenyl) thiophene-2-carboxamide]	189 ± 2.78	> 300	> 300	> 300	> 300	> 300	> 300	> 300	> 300	–	218.5 to 220.4	–	–	–	–	–	–	–	–
COc1cccc2c1C(=O)c1c(O)c3c(c(O)c1C2=O)C[C@@](O)(C(=O)CO)C[C@@H]3O[C@H]1C[C@H](N)[C@H](O)[C@H](C)O1 [DOX, Doxorubicin, reference compound]	1.21 ± 1	< 1	< 1	1.6 ± 0.67	< 1	1.55 ± 1.35	< 1	< 1	1.24 ± 0.87	–	–	–	–	–	–	–	–	–	no recognized sphere formation
COc1cc(NC(=O)c2ccc(-c3ccc(F)cc3)s2)cc(OC)c1 [2d, N-(3,5-dimethoxyphenyl)-5-(4-fluorophenyl) thiophene-2-carboxamide]	8.85 ± 1.45	> 300	> 300	> 300	> 300	> 300	> 300	> 300	> 300	–	156.5 to 157	–	–	–	–	–	–	–	–
